# Reference: ChEMBL document CHEMBL1201862, “PubChem BioAssay data set” (2004)
# The source made the active and inactive calls.
# Key:
# [1] = target: T1, RNA-binding protein pos-1 (Caenorhabditis elegans, UniProt G5EF15); experiment: disruptors of C. elegans POS-1 RNA interaction – biochemical, fluorescence polarization, dose response (AID 1964);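 further: purified POS-1 fused to maltose binding protein made in E. coli; potency of compounds blocking POS-1 binding to fluorescent RNA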
# T1 sequence (G5EF15 whole entry): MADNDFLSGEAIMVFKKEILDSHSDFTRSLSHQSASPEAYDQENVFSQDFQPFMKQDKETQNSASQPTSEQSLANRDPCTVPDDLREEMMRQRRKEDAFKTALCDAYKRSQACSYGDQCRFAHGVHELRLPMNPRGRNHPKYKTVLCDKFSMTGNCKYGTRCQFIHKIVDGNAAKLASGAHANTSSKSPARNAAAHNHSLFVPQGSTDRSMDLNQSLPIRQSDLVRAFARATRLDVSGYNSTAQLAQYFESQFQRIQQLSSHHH
# Escherichia coli [2] = experiment: microbe, parasite or virus in culture
# HeLa = experiment: viability loss in HeLa cells – cell-based, 24 h, cherry-picked samples, cytotoxicity control, dose response (AID 504726); type: functional; settings: Homo sapiens
# Escherichia coli [3] = experiment: microbe, parasite or virus in culture; remark: listed apart in the source
# [4] = target: T2, Zinc finger protein mex-5 (Caenorhabditis elegans, UniProt Q9XUB2); experiment: potency of MEX-5 RNA-binding blockers – biochemical, C. elegans, fluorescence polarization, dose response (AID 1960)
# T2 sequence (Q9XUB2 whole entry): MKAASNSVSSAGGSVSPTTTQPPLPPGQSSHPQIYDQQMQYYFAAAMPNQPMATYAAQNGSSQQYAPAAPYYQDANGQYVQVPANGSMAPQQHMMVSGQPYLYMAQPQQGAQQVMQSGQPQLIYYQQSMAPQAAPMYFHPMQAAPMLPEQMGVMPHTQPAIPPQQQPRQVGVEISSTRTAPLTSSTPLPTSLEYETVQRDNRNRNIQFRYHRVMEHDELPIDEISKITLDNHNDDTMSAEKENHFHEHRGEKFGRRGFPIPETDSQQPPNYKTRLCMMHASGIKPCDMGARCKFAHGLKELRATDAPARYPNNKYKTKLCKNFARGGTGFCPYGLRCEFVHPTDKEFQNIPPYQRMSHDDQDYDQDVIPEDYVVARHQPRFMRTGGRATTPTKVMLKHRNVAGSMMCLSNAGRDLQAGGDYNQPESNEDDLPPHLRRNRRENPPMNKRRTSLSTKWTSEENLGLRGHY
# BJ = experiment: growth inhibition of engineered Ras-driven BJ cells – cell-based, alamar blue fluorescence, cherrypicked samples, dose response (AID 2631); type: functional; settings: Homo sapiens;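 further: confirmatory dose-response assay in RAS-dependent BJ fibroblasts engineered with TERT, LT and ST, with cytotoxicity read by fluorescence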
# Mu-type opioid receptor = Mu-type opioid receptor (Homo sapiens, UniProt P35372); experiment: HTS Image-Based Screen for Agonists of the MOR Receptor. [Related pubchem assays (depositor defined):AID1777, AID1785, AID1786, AID2133]; type: functional;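 further: imaging of beta-arrestin GFP recruitment into spots after receptor activation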
# Chain of Mu-type opioid receptor (P35372 whole entry): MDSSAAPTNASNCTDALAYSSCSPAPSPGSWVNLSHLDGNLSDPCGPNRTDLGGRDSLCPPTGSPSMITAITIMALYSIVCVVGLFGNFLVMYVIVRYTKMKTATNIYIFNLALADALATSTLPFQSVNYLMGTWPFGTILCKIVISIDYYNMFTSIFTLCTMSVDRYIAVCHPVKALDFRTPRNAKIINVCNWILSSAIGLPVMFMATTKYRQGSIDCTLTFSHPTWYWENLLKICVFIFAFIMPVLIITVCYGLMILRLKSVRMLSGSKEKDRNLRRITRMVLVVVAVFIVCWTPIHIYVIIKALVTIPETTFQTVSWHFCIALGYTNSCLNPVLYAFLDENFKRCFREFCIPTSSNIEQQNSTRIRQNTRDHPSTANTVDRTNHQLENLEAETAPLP
# [5] = target: T3, Replicative DNA helicase DnaB (Mycobacterium tuberculosis, UniProt P9WMR3); experiment: DnaB intein splicing inhibitors, dose response, biochemical, cell-free fluorescence (AID 449749); type: functional
# T3 sequence (P9WMR3 whole entry): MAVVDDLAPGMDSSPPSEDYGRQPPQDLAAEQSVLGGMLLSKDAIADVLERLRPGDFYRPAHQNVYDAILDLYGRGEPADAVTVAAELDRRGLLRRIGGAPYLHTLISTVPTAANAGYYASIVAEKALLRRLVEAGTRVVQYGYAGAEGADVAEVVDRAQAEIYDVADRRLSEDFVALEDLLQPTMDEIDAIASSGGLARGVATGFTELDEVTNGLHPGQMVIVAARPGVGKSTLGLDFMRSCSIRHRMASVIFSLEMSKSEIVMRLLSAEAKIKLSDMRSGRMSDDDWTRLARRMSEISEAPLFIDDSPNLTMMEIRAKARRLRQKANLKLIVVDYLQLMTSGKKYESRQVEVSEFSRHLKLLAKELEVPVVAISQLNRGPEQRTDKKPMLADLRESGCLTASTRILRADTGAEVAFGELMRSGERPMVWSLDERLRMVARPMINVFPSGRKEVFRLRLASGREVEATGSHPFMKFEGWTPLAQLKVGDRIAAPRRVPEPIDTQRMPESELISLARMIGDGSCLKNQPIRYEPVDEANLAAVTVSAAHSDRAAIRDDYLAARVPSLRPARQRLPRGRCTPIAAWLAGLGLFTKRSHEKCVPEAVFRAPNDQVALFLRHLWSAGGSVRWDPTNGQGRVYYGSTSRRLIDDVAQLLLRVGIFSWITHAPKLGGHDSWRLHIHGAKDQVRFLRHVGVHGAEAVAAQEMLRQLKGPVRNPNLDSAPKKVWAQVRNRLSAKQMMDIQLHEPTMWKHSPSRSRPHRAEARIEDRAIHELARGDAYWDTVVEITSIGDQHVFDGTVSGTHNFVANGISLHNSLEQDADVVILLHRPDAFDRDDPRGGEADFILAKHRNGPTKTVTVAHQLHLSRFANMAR
# Beta-galactosidase = Beta-galactosidase (Escherichia coli, UniProt Q8VNN2); type: functional
# [6] = HepG2 cell cytotoxicity, dose response, cytotoxicity control for non-replicating M. tuberculosis project (AID 489018); type: functional; settings: Mycobacterium tuberculosis
# cells = type: functional
# Beta Lactamase = Beta Lactamase (Pseudomonas aeruginosa, UniProt Q932Y6); experiment: BLA reporter interference, concentration series – BLA reporter cells, FRET fluorescence, artefact control for TLR9-MyD88 binding inhibitor project, dose response (AID 588341); type: cell-based;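 further: cell based assay in CHO-K1 cells stably expressing beta-lactamase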
# Chain of Beta Lactamase (Q932Y6 whole entry): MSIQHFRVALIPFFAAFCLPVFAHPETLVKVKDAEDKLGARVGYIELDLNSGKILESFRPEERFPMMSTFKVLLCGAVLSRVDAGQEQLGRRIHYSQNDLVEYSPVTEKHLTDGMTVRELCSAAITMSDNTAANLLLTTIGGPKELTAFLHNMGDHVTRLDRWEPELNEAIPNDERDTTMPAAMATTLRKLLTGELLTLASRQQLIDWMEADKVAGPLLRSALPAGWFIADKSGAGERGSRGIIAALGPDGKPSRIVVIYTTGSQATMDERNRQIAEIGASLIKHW
# [7] = target: T4, Kappa-type opioid receptor (Homo sapiens, UniProt P41145); type: functional
# T4 sequence (P41145 whole entry): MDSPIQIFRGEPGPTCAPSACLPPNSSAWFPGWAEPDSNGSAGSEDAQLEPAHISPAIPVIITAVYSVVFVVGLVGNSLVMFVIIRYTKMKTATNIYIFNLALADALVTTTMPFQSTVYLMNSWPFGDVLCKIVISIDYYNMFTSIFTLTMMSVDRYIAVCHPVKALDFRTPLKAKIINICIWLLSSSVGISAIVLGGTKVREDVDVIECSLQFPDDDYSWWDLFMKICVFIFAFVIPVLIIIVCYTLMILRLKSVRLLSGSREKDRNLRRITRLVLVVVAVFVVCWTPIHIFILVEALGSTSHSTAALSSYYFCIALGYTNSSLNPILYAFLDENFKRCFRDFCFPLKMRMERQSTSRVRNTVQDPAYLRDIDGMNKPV
# Fatty acid synthase [8] = target: T5, Fatty acid synthase (Homo sapiens, UniProt P49327); experiment: inhibition of human FAS-TE enzyme activity – biochemical, kinetic fluorescence intensity, dose response (AID 624326); type: functional;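 further: rate of fluorescence rise from hydrolysis of a fluorogenic O-methyl fluorescein ester substrate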
# T5 sequence (P49327 whole entry): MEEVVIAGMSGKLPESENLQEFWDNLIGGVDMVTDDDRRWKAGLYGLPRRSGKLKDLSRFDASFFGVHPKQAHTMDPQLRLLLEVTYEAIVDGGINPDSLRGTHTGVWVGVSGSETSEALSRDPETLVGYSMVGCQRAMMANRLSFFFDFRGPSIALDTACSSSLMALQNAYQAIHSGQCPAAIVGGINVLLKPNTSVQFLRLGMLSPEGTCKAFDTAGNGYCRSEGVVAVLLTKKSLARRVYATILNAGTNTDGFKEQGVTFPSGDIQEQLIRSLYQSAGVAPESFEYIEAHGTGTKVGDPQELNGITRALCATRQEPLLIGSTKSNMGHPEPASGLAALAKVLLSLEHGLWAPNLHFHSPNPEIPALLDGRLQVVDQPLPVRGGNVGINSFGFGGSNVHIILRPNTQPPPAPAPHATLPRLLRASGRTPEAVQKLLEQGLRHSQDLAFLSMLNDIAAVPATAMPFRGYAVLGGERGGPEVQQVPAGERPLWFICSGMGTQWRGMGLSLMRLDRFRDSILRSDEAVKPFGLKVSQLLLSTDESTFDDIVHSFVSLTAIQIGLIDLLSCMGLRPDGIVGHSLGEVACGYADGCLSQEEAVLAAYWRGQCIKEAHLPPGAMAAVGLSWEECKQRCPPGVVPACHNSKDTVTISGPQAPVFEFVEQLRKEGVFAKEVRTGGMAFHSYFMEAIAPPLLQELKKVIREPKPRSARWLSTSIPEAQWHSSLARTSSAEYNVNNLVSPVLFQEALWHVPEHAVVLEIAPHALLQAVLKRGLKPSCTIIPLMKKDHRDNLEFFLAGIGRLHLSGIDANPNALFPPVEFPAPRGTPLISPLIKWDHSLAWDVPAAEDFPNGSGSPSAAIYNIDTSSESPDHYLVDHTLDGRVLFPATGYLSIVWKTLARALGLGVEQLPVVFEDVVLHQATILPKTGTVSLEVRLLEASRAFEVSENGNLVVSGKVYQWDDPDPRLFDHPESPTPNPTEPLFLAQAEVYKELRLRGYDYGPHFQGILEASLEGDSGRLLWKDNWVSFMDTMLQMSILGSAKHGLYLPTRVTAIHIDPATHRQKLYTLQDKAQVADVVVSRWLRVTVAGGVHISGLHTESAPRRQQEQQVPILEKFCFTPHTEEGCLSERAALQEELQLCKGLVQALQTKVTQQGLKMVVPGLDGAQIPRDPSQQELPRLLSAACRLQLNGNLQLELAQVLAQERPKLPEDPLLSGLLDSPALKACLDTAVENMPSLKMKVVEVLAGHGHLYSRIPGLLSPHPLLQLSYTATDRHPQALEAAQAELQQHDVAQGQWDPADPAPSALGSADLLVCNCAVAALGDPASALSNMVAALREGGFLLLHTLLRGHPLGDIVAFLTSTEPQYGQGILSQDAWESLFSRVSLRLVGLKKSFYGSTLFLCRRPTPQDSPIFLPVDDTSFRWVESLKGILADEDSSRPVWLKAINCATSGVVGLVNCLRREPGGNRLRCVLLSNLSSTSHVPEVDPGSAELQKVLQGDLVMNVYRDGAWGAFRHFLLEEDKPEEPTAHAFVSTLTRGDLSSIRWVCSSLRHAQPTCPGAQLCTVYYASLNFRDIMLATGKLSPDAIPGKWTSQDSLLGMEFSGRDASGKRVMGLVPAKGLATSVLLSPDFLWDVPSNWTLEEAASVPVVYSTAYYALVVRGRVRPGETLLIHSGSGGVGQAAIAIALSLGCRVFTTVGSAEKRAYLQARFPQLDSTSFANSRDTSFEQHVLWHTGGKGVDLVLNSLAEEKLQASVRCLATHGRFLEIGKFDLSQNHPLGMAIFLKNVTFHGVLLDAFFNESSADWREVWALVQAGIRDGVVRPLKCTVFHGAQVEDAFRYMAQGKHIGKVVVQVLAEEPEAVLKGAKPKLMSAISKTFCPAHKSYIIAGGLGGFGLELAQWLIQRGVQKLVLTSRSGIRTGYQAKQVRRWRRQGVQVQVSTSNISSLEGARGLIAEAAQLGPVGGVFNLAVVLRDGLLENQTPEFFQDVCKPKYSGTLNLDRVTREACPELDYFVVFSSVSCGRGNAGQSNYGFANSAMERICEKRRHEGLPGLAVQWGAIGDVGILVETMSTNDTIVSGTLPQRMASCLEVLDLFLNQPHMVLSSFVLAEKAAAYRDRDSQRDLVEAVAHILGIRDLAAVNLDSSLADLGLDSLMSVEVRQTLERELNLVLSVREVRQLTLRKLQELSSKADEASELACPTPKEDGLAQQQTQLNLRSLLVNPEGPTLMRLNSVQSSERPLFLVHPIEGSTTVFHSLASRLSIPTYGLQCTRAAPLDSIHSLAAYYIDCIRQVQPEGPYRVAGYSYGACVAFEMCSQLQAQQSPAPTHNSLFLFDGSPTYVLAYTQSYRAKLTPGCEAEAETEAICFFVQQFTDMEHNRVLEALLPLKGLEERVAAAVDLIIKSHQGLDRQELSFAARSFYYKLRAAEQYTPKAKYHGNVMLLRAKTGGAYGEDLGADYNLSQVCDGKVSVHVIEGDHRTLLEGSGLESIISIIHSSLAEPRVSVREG
# [9] = target: T4, Kappa-type opioid receptor; type: functional; remark: listed apart in the source
# Protein RecA = target: T6, Protein RecA (Mycobacterium tuberculosis, UniProt P9WHJ3); experiment: Fluorescence Cell-Free Homogeneous Dose Retest to Identify Inhibitors of RecA-Intein Splicing Activity. [Related pubchem assays (depositor defined):AID2097, AID2223, AID489010, AID492950]; type: functional
# T6 sequence (P9WHJ3 whole entry): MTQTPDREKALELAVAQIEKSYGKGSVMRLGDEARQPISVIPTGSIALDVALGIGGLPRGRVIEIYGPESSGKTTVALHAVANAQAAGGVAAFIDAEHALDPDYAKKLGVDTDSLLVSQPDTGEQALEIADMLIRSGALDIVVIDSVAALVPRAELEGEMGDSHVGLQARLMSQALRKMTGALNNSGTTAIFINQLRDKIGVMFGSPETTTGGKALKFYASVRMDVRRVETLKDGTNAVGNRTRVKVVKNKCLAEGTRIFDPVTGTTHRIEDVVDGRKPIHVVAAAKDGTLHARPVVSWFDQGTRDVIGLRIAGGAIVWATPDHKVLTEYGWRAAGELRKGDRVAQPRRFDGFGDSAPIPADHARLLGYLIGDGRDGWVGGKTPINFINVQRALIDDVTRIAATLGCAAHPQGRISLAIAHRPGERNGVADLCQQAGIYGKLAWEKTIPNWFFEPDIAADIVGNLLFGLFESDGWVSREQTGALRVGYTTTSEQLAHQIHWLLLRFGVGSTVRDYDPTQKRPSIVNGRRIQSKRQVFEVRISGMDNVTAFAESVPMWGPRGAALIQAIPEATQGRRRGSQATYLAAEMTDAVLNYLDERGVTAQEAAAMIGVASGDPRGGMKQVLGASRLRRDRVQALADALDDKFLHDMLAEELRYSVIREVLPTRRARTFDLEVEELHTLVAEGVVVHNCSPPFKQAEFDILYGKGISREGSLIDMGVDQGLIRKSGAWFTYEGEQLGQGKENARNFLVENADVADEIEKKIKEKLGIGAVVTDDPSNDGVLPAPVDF
# [10] = Vero E6 cell cytotoxicity, dose response, cytotoxicity control for non-replicating M. tuberculosis project, secondary assay (AID 492998); type: functional, VeroE6; settings: Vero C1008
# [11] = reduction of Shn3 3'UTR-driven luciferase in osteoblasts – cell-based, Clone20 osteoblasts, firefly luciferase, cherry-picked, dose response (AID 624132); type: functional;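 further: firefly luciferase luminescence from reporter carrying the Shn3 3'UTR in osteoblasts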
# CHO = CHO cell viability loss, potency – luminescence, cytotoxicity control for TLR9-MyD88 binding inhibitor project, dose response (AID 588339); type: functional, cell-based, hamster; settings: Cricetulus griseus;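 further: CHO cells stably coexpressing TLR9 and MyD88 fusions from primary screen; compound exposure lasted 48 hours before viability readout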
# [12] = loss of viability in HepG2 cells – cell-based, CellTiter-Glo, cherry-picked, cytotoxicity control for Shn3 inhibitor project, dose response (AID 624134); type: functional
# [13] = target: Bifunctional protein GlmU (Mycobacterium tuberculosis, UniProt P9WMN3); experiment: Inhibitors of Mycobacterial Glucosamine-1-phosphate acetyl transferase (GlmU). Secondary screen.; parameters: species or system Mycobacterium tuberculosis H37Rv
# Chain of Bifunctional protein GlmU (P9WMN3 whole entry): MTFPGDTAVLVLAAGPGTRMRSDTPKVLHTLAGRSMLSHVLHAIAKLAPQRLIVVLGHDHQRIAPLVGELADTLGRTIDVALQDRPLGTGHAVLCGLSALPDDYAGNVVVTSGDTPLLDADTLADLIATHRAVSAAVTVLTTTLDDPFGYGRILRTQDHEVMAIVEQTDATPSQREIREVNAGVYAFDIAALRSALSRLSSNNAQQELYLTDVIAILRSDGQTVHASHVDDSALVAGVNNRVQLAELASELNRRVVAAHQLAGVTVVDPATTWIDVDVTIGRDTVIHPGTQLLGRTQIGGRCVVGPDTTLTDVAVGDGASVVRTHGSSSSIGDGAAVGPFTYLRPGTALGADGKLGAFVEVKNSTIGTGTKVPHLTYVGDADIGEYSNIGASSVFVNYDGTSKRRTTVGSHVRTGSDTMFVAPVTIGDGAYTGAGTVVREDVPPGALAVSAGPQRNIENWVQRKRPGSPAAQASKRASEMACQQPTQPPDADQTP
# [14] = viability of PTEN-deleted HCT116 cells – cell-based, HCT116 PTEN knockout, dose response (AID 1047); type: functional;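 further: HCT116 colon tumor cells with PTEN knocked out; cells exposed to compound for 60 hours before readout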
# [15] = viability of HCT116 lacking mutant beta-catenin – cell-based, human colon tumor, dose response (AID 1045); type: functional;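 further: HCT116 colon tumor cells with beta catenin knocked out; cells exposed to compound for 60 hours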
# Fatty acid synthase [16] = target: T5, Fatty acid synthase; experiment: inhibition of human FAS-TE enzyme activity – biochemical, endpoint fluorescence intensity, uHTS hits, dose response (AID 624327); type: functional;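 further: fluorescence from hydrolysis of an O-methyl fluorescein acyl ester substrate by the enzyme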
# [17] = target: T7, Delta-type opioid receptor (Homo sapiens, UniProt P41143); experiment: HTS Image-Based Screen for Antagonists of the DOR Receptor. [Related pubchem assays (depositor defined):AID1777, AID1785, AID1786, AID2133]; type: functional
# T7 sequence (P41143 whole entry): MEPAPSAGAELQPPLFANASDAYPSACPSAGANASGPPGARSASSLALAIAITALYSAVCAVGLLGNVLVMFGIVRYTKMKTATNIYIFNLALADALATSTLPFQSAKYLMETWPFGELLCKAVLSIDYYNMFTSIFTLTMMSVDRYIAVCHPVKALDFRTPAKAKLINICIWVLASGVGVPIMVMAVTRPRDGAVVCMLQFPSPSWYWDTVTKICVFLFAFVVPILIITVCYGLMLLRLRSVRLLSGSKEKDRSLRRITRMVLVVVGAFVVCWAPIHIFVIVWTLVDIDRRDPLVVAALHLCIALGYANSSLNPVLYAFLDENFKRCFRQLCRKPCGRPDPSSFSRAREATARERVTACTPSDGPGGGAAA
# [18] = THP-1 cell cytotoxicity, dose response, cytotoxicity control for non-replicating M. tuberculosis project (AID 489025); type: functional
# [19] = non-specific 3'UTR reporter inhibition in Clone20-Shn3RL – cell-based, Renilla luciferase, cherry-picked, counter-screen for Shn3 inhibitor project, dose response (AID 624133); type: functional
# [20] = target: T7, Delta-type opioid receptor; experiment: HTS Image-Based Screen for Agonists of the DOR Receptor. [Related pubchem assays (depositor defined):AID1777, AID1786, AID2133]; type: functional
# [21] = Luminescence Cell-Based Secondary HTS screen to identify cytotoxic compounds of NIH3T3 cells. [Related pubchem assays: 1885, 1968 ]; type: functional
# [22] = Trypanosoma cruzi growth suppression in host cells – NIH3T3 host cells, beta-gal luminescence, confirmation (AID 2044); type: functional, cell-based;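 further: intracellular parasites grown in NIH/3T3 mouse fibroblasts as host cells; luminescent beta-galactosidase reporter signal from transgenic T. cruzi replicating inside host cells; inhibitors lower the luminescence signal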
# [23] = NIH3T3 cell viability loss – ATP luminescence, mouse fibroblasts, counter-screen, dose response (AID 2010); type: functional, cell-based;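 further: cells exposed to compound for about 90 hours before reading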
# [24] = T. cruzi infection blockers in NIH3T3 cells – beta-gal luminescence, NIH3T3 host cells, confirmation (AID 2630); type: functional, cell-based; settings: Mus musculus
# [25] = Luminescence Cell-Based/Microorganism Confirmation at Dose of Inhibitors of Trypanosoma cruzi Infection. [Related pubchem assays: 1885, 1968 ]; type: functional
smiles,measurement,setting,value
CN(C)C1C(=O)C(C(N)=O)=C(O)C2(O)C(O)=C3C(=O)c4c(O)cccc4C(C)(O)C3C(O)C12 (stereo not drawn),EC50,[1],65.8 µM (active)
same,AC50,Escherichia coli [2],14.9 µM (active)
same,AC50,HeLa,54.2 µM (active)
same,AC50,Escherichia coli [3],< 0.3 µM (active)
same,EC50,[4],29.9 µM (inconclusive)
CCCC(=O)OCCNc1cc(Sc2nccn2C)c2nonc2c1[N+](=O)[O-],EC50,BJ,2.82 µM (active)
same,EC50,Mu-type opioid receptor,> 32 µM (inactive)
same,AC50,[5],1.14 µM (active)
same,EC50,Beta-galactosidase,> 31.5 µM (inactive)
same,CC50,[6],13.3 µM (active)
same,IC50,cells,6.13 µM (active)
same,IC50,Beta Lactamase,8.31 µM (active)
same,IC50,[7],5.47 µM (active)
same,IC50,Fatty acid synthase [8],2.57 µM (active)
same,IC50,[9],30.5 µM
same,EC50,Protein RecA,1.27 µM (active)
same,CC50,[10],16.6 µM (active)
same,AC50,[11],7.22 µM (active)
same,IC50,CHO,3.21 µM (active)
same,AC50,[12],15.7 µM (active)
same,IC50,[13],136 µM (active)
same,EC50,[14],6.43 µM (active)
same,EC50,[15],4.63 µM (active)
same,IC50,Fatty acid synthase [16],5.11 µM (active)
same,IC50,[17],> 32 µM (inactive)
same,CC50,[18],19.2 µM (active)
same,AC50,[19],12.2 µM (active)
same,EC50,[20],> 32 µM (inactive)
COC(=O)N/N=C/c1ccc([N+](=O)[O-])o1,EC50,[21],> 195 µM (not active)
same,EC50,[22],0.469 µM (active)
same,EC50,[23],> 60 µM (not active)
same,EC50,[24],0.123 µM (active)
same,EC50,[25],0.123 µM (active)
